The record followed here is PMC4406878 (Pharmaceutical research, 2011).

In the assay the test system is PSMA. The settings on record: 2 nM DHT, 48 h, 5% charcoal-stripped FBS RPMI-1640, Western blot.

In the case of `C[C@]12CCC(=O)C[C@@H]1CC[C@@H]1[C@@H]2CC[C@]2(C)[C@@H](O)CC[C@@H]12` [DHT, 5-α-dihydrotestosterone], the “PSMA expression in LNCaP cells” value is “substantially inhibited”.
